Results reported in PubChem BioAssay (NCI).
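Values below derive from 48-hour exposures of cells grown in 96-well plates, with endpoints linearly interpolated between the two concentrations bracketing the appropriate inhibition level. GI50 marks 50% less growth. TGI marks complete inhibition of growth.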

Experiments:
Assay in all cases: DTP human tumour cell line panel, 48 h
HCT-15 colon = tested on: HCT-15 colon
MOLT-4 leukemia = tested on: MOLT-4 leukemia
RXF 393 renal = tested on: RXF 393 renal
SK-MEL-2 melanoma = tested on: SK-MEL-2 melanoma
HL-60(TB) leukemia = tested on: HL-60(TB) leukemia
HCT-116 colon = tested on: HCT-116 colon
COLO 205 colon = tested on: COLO 205 colon
MALME-3M melanoma = tested on: MALME-3M melanoma
SW-620 colon = tested on: SW-620 colon
SN12C renal = tested on: SN12C renal

SMILES	TGI (HCT-15 colon)	TGI (MOLT-4 leukemia)	TGI (RXF 393 renal)	TGI (SK-MEL-2 melanoma)	TGI (HL-60(TB) leukemia)	TGI (HCT-116 colon)	TGI (COLO 205 colon)	TGI (MALME-3M melanoma)	TGI (SW-620 colon)	TGI (SN12C renal)	GI50 (HCT-15 colon)	GI50 (MOLT-4 leukemia)	GI50 (RXF 393 renal)	GI50 (SK-MEL-2 melanoma)	GI50 (HL-60(TB) leukemia)	GI50 (HCT-116 colon)	GI50 (MALME-3M melanoma)	GI50 (SW-620 colon)	GI50 (SN12C renal)	GI50 (COLO 205 colon)
CC[C@H]1C=CCC[C@@]2(C[C@@H]3CC[C@@H]4[C@H](C(=O)OCCCCCCCCCCCCCCCC(=O)O)[C@]5(CCC[C@@H](C)O5)NC(=[N+]34)N2)O1	7.77 µM	2.84 µM	1.9 µM	0.347 µM	0.636 µM	2.16 µM	1.34 µM	0.423 µM	6.37 µM	7.93 µM	–	–	–	–	–	–	–	–	–	–
COc1cccc(N=Cc2cc3cc(Br)ccc3nc2Cl)c1	> 50 µM	> 50 µM	> 50 µM	> 50 µM	> 50 µM	> 50 µM	> 50 µM	> 50 µM	> 50 µM	> 50 µM	–	–	–	–	–	–	–	–	–	–
CCCc1[nH]c(SCCCCCCCCSc2nc(-c3ccc(F)cc3)c(CCC)[nH]2)nc1-c1ccc(F)cc1	> 100 µM	> 100 µM	> 100 µM	> 100 µM	> 100 µM	> 100 µM	> 100 µM	–	> 100 µM	> 100 µM	–	–	–	–	–	–	–	–	–	–
COc1cc(/C=C/C(=O)c2ccc(NS(=O)(=O)c3cc([N+](=O)[O-])ccc3C)cc2)cc(OC)c1OC	13.4 µM	6.58 µM	11.1 µM	8.47 µM	11.1 µM	6.49 µM	14.9 µM	–	25.5 µM	4.52 µM	–	–	–	–	–	–	–	–	–	–
CC(=O)Nc1cc([As](=O)(O)O)ccc1O	> 100 µM	> 100 µM	> 100 µM	> 100 µM	> 100 µM	> 100 µM	> 100 µM	> 100 µM	> 100 µM	> 100 µM	–	–	–	–	–	–	–	–	–	–
CNC(=O)OC(C)CN1c2ccccc2Sc2ccc(Cl)cc21 (centres undefined)	> 10 µM	> 10 µM	> 10 µM	> 10 µM	> 10 µM	> 10 µM	> 10 µM	> 10 µM	> 10 µM	> 10 µM	–	–	–	–	–	–	–	–	–	–
CCOC(=O)CSc1nc(N)c2c(-c3ccc(OC)c(OC)c3)c3c(nc2n1)CCCC3	> 100 µM	> 100 µM	> 100 µM	–	> 100 µM	> 100 µM	> 100 µM	> 100 µM	> 100 µM	> 100 µM	–	–	–	–	–	–	–	–	–	–
CCS(=O)(=O)Nc1ccc(Nc2c3ccccc3nc3ccccc23)c(OC)c1	5.11 µM	10.6 µM	9.6 µM	18.8 µM	0.13 µM	6.94 µM	7.28 µM	2.37 µM	7.13 µM	3.86 µM	–	–	–	–	–	–	–	–	–	–
COc1ccc2nc(N/N=C/C(C)=N/Nc3cc(C)c4cc(OC)ccc4n3)cc(C)c2c1	25.1 µM	42.1 µM	> 83.1 µM	> 82.1 µM	40.6 µM	28.6 µM	57.9 µM	76.4 µM	43.5 µM	51.4 µM	–	–	–	–	–	–	–	–	–	–
CCOC(=O)N(Cc1cccs1)c1cc(OC)c(OC)c(OC)c1	> 100 µM	36 µM	> 100 µM	> 100 µM	> 100 µM	> 100 µM	32.9 µM	> 100 µM	> 100 µM	> 100 µM	–	–	–	–	–	–	–	–	–	–
COc1ccc2nc(-c3ccc(-c4noc(-c5cc(OC)c(OC)c(OC)c5)n4)cc3)[nH]c2c1	13.3 µM	59.1 µM	19.1 µM	51.1 µM	81.7 µM	10.7 µM	–	7.51 µM	56.5 µM	31.3 µM	1.49 µM	5.29 µM	5.24 µM	18.9 µM	20.2 µM	1.9 µM	1.67 µM	5.89 µM	13.2 µM	–
CC#CC#C/C=C1/O[C@]2(CCC(OC(C)=O)CO2)[C@@H]2O[C@H]12 (some centres undefined)	42.8 µM	57 µM	47.5 µM	40.5 µM	48.7 µM	40.6 µM	32.4 µM	35.6 µM	95.9 µM	51.9 µM	–	–	–	–	–	–	–	–	–	–
Cn1c(=S)[nH]c2sc3c(c2c1=O)CCSC3	> 100 µM	> 100 µM	14.7 µM	> 100 µM	43.3 µM	> 100 µM	> 100 µM	> 100 µM	> 100 µM	> 100 µM	–	–	–	–	–	–	–	–	–	–
COc1cc(C2C(C(=O)O)=C(CO)Oc3cc4c(cc32)OCO4)cc(OC)c1O (centres undefined)	> 100 µM	> 100 µM	–	–	> 100 µM	> 100 µM	> 100 µM	> 100 µM	> 100 µM	> 100 µM	–	–	–	–	–	–	–	–	–	–
CN1CC[C@@]2(c3cccc(O)c3)CC(=O)/C(=C/c3ccccc3)[C@H]1C2	41.2 µM	6.21 µM	20.5 µM	87.2 µM	7.73 µM	12.5 µM	30.3 µM	33.5 µM	10.1 µM	19.4 µM	–	–	–	–	–	–	–	–	–	–
N=c1c2c(C(N)=O)cn(C3OC(CO)C(O)C3O)c2ncn1O (centres undefined)	0.388 µM	0.491 µM	3.71 µM	2.33 µM	0.659 µM	0.596 µM	1.23 µM	0.477 µM	0.497 µM	0.444 µM	–	–	–	–	0.191 µM	–	–	–	–	–
COc1ccc(/C=C2\C(=O)N(C3OC(COC(C)=O)C(OC(C)=O)C(OC(C)=O)C3OC(C)=O)c3ccccc3N=C2N)cc1 (centres undefined)	> 100 µM	39.7 µM	62.2 µM	66.9 µM	41.9 µM	49.7 µM	34 µM	84.5 µM	> 100 µM	> 100 µM	–	–	–	–	–	–	–	–	–	–
COc1cc(C=C2C(C)=NN(c3cccc(Cl)c3)C23SCC(=O)N3c2nc3ccccc3s2)ccc1O (centres undefined)	> 93.6 µM	35.1 µM	62.7 µM	39.5 µM	26.7 µM	65.3 µM	32.9 µM	47.6 µM	96.9 µM	> 100 µM	–	–	–	–	–	–	–	–	–	–
CCN(CC)CC(C)Nc1ccc([N+](=O)[O-])c2sc3ccccc3c(=O)c12 (centres undefined)	23.8 µM	–	5.71 µM	5.04 µM	11.7 µM	4.49 µM	3.35 µM	3.76 µM	4.13 µM	23.5 µM	1.6 µM	–	1.65 µM	1.94 µM	2.82 µM	1.41 µM	1.31 µM	1.25 µM	1.93 µM	0.941 µM
O=C(CCCCCCC(=O)Nc1ccc(N(CCCl)CCCl)cc1)NO	> 100 µM	4.26 µM	4.74 µM	–	–	12.9 µM	19.9 µM	5.6 µM	22 µM	18.6 µM	18.9 µM	0.421 µM	1.64 µM	–	–	1.97 µM	0.507 µM	1.71 µM	0.8 µM	4.4 µM
ONc1ncnc2nc[nH]c12	> 100 µM	> 100 µM	–	> 100 µM	> 100 µM	> 100 µM	> 100 µM	> 100 µM	> 100 µM	–	–	–	–	–	–	–	–	–	–	–
Cc1nc(N)nc(N)c1-c1ccc(Cl)c(Cl)c1	> 100 µM	> 100 µM	> 79.9 µM	> 90.6 µM	> 88.1 µM	> 100 µM	> 67.5 µM	> 87.7 µM	> 100 µM	> 100 µM	–	–	–	–	–	–	–	–	–	–
O=S(=O)(O)c1ccc2cccc(N=Nc3c(O)ccc4ccccc34)c2c1	> 100 µM	> 100 µM	> 100 µM	> 100 µM	> 100 µM	> 100 µM	> 100 µM	> 100 µM	> 100 µM	> 100 µM	–	–	–	–	–	–	–	–	–	–
Cc1cccc2nc3c(C(=O)NCCN(C)C)cccc3cc12	6.68 µM	–	4.13 µM	3.46 µM	3.37 µM	6.21 µM	2.62 µM	2.78 µM	4.49 µM	5.98 µM	–	–	–	–	–	–	–	–	–	–
CC1SC(c2ccccc2)N(CCc2cccs2)C1=O (centres undefined)	18.8 µM	12.4 µM	20.4 µM	14.7 µM	8.67 µM	12.3 µM	10.8 µM	26.1 µM	18.3 µM	20.1 µM	3.86 µM	2.98 µM	6.76 µM	3.42 µM	2.85 µM	2.99 µM	5.47 µM	4.6 µM	5.43 µM	3.2 µM
O=C(N/N=C(/c1ccccc1)C(F)(F)F)c1ccncc1	> 100 µM	> 100 µM	> 100 µM	> 100 µM	> 100 µM	> 100 µM	> 100 µM	> 100 µM	–	> 100 µM	–	–	–	–	–	–	–	–	–	–
